Results from patent US20110288082A1, “METHODS AND COMPOSITIONS FOR INHIBITION OF THE TRANSITIONAL ENDOPLASMIC RETICULUM ATPASE” (priority 2010, published 2011).
Where “and” joins values, the source holds several entries; their conditions need not be identical. Equal values may be shown once. Read-outs that look alike come from different tables or passages of the source.

Assays:
[1] = target: p97 (Homo sapiens, UniProt P55072); assay: p97 ATPase assay (Kinase Glo Plus; biomol green for compounds that interfere with luciferase); assay type: biochemical
Procedure: Assay Buffer (20 μL of 2.5× concentration, where 1×=50 mM Tris pH 7.4, 20 mM MgCl2, 1 mM EDTA, 0.5 mM TCEP) was dispensed into each well of a 96 well plate. Purified p97 (25 μL of 50 μM) was diluted in 975 μL, of 1× Assay Buffer and 10 μL was dispensed in each well. Test compound (10 μL) or 5% DMSO (10 μL) was then added to each well and the plate was incubated at room temperature for 10 min. The ATPase assay was carried out by adding to each well 10 μL of 500 μM ATP (pH 7.5), incubating at room temperature for 60 min, and then adding 50 μL Kinase Glo Plus reagent (Promega) followed by a final 10 min incubation at room temperature in the dark. Luminescence was read on an Analyst AD (Molecular Devices). Compounds were assayed at a range of concentrations (0, 0.048, 0.24, 1.2, 6, 30 μM) in triplicate. The percent of remaining activity for each reaction was calculated using the following mathematical expression: ((Test Compound-High Control)/(Low Control-High Control))*100. Test_Compound is defined as wells containing test compound, Low_Control is defined as wells containing DMSO, High_Control is defined as wells containing no p97 protein. […] The result was expressed as mean +/− standard error. For assays with Myriad 12 and 19, 100 μL of biomol green reagent (Enzo Life Sciences) was added to each well instead of kinase Glo Plus (Promega) and absorbance at 630 nm was measured. This was done because these compounds interfered with luciferase activity. […]

[2] = system: p97-dependent Ub^G76V-GFP degradation in HeLa cells; assay: Ub^G76V-GFP degradation (turn-over) assay; assay type: cell-based, human
Procedure: Ub^G76V-GFP Degradation Assay
Two GFP images with 100 ms exposure time per well were acquired and the average GFP intensity per area of a HeLa cell was determined by using MetaXpress software. Mean GFP intensity of 300-500 cells was calculated using Excel. Normalized GFP intensity was calculated using the following formula: (Test compound−Background)/(Basal GFP intensity—Background). Where: Test compound is defined as Mean GFP intensity of Ub^G76V-GFP-expressing cells treated with the test compound. Background is defined as background GFP intensity of HeLa cells. Basal GFP intensity is defined as mean GFP intensity of Ub^G76V-GFP-expressing cells treated with DMSO. […] The percent of remaining k for each compound is calculated using the following formula: (Test compound/DMSO control)*100. Where: Test_compound is defined as k determined from wells containing test compound, DMSO control is defined as k determined from wells containing DMSO.

[3] = Homo sapiens, HeLa, read-out: IC50 (μM) Ub^G76V-GFP turn over, p97-dependent Ub^G76V-GFP degradation turn-over assay
[4] = purified p97, ATP, 60 min room temperature, mean +/- standard error
[5] = Homo sapiens, HeLa, read-out: IC50 (μM) Ub^G76V-GFP turn over, Ub^G76V-GFP-expressing HeLa cells, degradation rate constant k from 90 to 180 min, mean +/- standard error

Sequence of p97 (P55072 2-806 limits assumed): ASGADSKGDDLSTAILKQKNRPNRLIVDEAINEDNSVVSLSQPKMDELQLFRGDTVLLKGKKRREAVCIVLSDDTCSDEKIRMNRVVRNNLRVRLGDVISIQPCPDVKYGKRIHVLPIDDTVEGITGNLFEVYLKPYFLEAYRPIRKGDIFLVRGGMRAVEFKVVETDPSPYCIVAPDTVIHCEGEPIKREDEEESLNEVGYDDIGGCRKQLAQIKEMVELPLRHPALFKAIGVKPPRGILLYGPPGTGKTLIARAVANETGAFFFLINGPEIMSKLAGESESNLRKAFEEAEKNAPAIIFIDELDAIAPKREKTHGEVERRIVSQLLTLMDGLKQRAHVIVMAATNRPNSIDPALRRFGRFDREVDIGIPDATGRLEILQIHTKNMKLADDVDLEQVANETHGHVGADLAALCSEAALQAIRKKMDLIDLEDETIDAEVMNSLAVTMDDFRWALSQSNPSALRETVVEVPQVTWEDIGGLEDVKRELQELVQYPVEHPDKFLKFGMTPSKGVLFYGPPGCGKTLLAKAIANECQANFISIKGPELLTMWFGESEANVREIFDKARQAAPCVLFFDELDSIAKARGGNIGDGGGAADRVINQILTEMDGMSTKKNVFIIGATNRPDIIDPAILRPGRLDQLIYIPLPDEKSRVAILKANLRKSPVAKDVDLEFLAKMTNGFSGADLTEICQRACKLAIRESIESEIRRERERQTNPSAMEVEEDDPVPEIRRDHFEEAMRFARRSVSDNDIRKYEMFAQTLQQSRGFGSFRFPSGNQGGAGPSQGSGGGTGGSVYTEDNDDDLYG

Row | SMILES | IC50 [2, 3] [µM] | IC50 [2, 5] [µM] | also measured
1 | Clc1cccc(CNc2nc(-c3ccccc3)nc3ccccc23)c1 [Cpd I-12] | 17 ± 4 |  | IC50 ([1]; p97 ATPase assay): 28 ± 9 µM
2 | Clc1ccccc1CNc1nc(-c2ccccc2)nc2ccccc12 [Cpd I-14] | 11 ± 3 |  | 
3 | Clc1ccc(CNc2nc(-c3ccccc3)nc3ccccc23)cc1 [Cpd I-15] | 15 ± 3 |  | IC50 ([1]; p97 ATPase assay): > 30 µM
4 | Fc1ccccc1-c1nc(NCc2ccccc2Cl)c2ccccc2n1 [Cpd I-16] | 15 ± 3 |  | IC50 ([1]; p97 ATPase assay): 26 ± 12 µM
5 | CN(Cc1ccccc1)c1nc(-c2ccccc2)nc2ccccc12 [Cpd I-25] | 17 ± 5 |  | 
6 | CN(Cc1ccccc1)c1nc(-c2ccccc2F)nc2ccccc12 [Cpd I-26] | 6 ± 2 |  | IC50 ([1]; p97 ATPase assay): 25 ± 4 µM
7 | CN(Cc1ccccc1)c1nc(-c2ccccc2[N+](=O)[O-])nc2ccccc12 [Cpd I-27] | 11 ± 6 |  | IC50 ([1]; p97 ATPase assay): 25 ± 11 µM
8 | CC(Nc1nc(-c2ccccc2)nc2ccccc12)c1ccccc1 (centres unmarked) [Cpd I-29] | 13 ± 1 |  | IC50 ([1]; p97 ATPase assay): 27 ± 14 µM
9 | CC(Nc1nc(-c2ccccc2F)nc2ccccc12)c1ccccc1 (centres unmarked) [Cpd I-31] | 15 ± 4 |  | IC50 ([1]; p97 ATPase assay): > 30 µM
10 | Clc1ccc2c(NCc3ccccc3)nc(-c3ccccc3)nc2c1 [Cpd I-32] | 12 ± 4 |  | 
11 | c1ccc(-c2nc(N3CCc4ccccc4C3)c3ccccc3n2)cc1 [Cpd I-35] | 19 ± 5 |  | IC50 ([1]; p97 ATPase assay): > 30 µM
12 | Fc1ccccc1-c1nc(NCc2ccccc2)c2ccccc2n1 [I-1] |  | 8 ± 1.7 | IC50 [1, 4]: 1.1 µM and 3 µM; IC50 ([2]; read-out: IC50 (μM) Ub^G76V-GFP turn over, Ub^G76V-GFP-expressing HeLa cells, degradation rate constant k from 90 to 180 min, mean +/- standard error): 9 ± 1.3 µM
13 | c1ccc(CNc2nc(-c3ccccc3)nc3ccccc23)cc1 [I-2] |  | 12 ± 3 | IC50 [1, 4]: 4.2 ± 2.3 µM
14 | Clc1ccccc1-c1nc(NCc2ccccc2)c2ccccc2n1 [I-3] |  | 8 ± 3 | 
15 | O=[N+]([O-])c1cccc(-c2nc(NCc3ccccc3)c3ccccc3n2)c1 [I-4] |  | 4 ± 1.6 | 
16 | Cc1cccc(-c2nc(NCc3ccccc3)c3ccccc3n2)c1 [I-5] |  | 17 ± 4 | IC50 [1, 4]: 4.2 ± 0.2 µM
17 | Clc1ccc(-c2nc(NCc3ccccc3)c3ccccc3n2)cc1 [I-6] |  | 20 ± 3 | IC50 [1, 4]: 5.5 ± 1.9 µM
18 | O=[N+]([O-])c1ccc(-c2nc(NCc3ccccc3)c3ccccc3n2)cc1 [I-8] |  | 19 ± 7 | IC50 [1, 4]: 11 ± 6 µM
19 | COc1ccc(-c2nc(NCc3ccccc3)c3ccccc3n2)cc1 [I-9] |  | 15 ± 2 | IC50 [1, 4]: 1.6 ± 0.3 µM
20 | Cc1ccc(-c2nc(NCc3ccccc3)c3ccccc3n2)cc1 [I-10] |  | 13 ± 2 | IC50 [1, 4]: 5.7 ± 0.7 µM
21 | Clc1ccc(-c2nc(NCc3ccccc3)c3ccccc3n2)cc1Cl [I-11] |  | 37 ± 6 | IC50 [1, 4]: 7.1 ± 0.4 µM

Row | SMILES | IC50 [2, 3] [µM] | IC50 [2, 5] [µM] | also measured
22 | Fc1ccc(CNc2nc(-c3ccccc3)nc3ccccc23)cc1 [I-13] |  | 19 ± 3 | IC50 [1, 4]: 11 ± 3 µM
23 | COc1ccc(-c2nc(NCc3ccc(F)cc3)c3ccccc3n2)cc1 [I-17] |  | 9.8 ± 3 | IC50 [1, 4]: 7.8 ± 0.4 µM
24 | COc1ccc(CNc2nc(-c3ccc(OC)cc3)nc3ccccc23)cc1 [I-20] |  | 15 ± 5 | IC50 [1, 4]: 13 ± 4 µM
25 | COc1ccc(-c2nc(NCc3ccc(C)cc3)c3ccccc3n2)cc1 [I-21] |  | 12 ± 2 | IC50 [1, 4]: 8 ± 2 µM
26 | COc1ccc(-c2nc(NCc3ccc(Cl)cc3)c3ccccc3n2)cc1 [I-22] |  | 9.3 ± 1 | IC50 [1, 4]: 8 ± 2 µM
27 | Fc1ccc(CNc2nc(-c3ccc(Cl)cc3)nc3ccccc23)cc1 [I-23] |  | 20 ± 5 | IC50 [1, 4]: 8 ± 0.2 µM
28 | Cc1cccc(-c2nc(NCc3ccc(F)cc3)c3ccccc3n2)c1 [I-24] |  | 12 ± 0.8 | IC50 [1, 4]: 15 ± 2 µM
29 | CN(Cc1ccccc1)c1nc(-c2ccc([N+](=O)[O-])cc2)nc2ccccc12 [I-28] |  | 28 ± 4 | IC50 [1, 4]: 8.4 ± 4 µM
30 | Cc1ccc(-c2nc(NC(C)c3ccccc3)c3ccccc3n2)cc1 (centres unmarked) [I-30] |  | 17 ± 4 | IC50 [1, 4]: 7 ± 4 µM
31 | Cc1ccc(-c2nc(NCc3ccccc3)c3ccc(Cl)cc3n2)cc1 [I-33] | 24 ± 5 |  | 
32 | COc1ccc(-c2nc(NCc3ccccc3)c3ccc(Cl)cc3n2)cc1 [I-34] | 70 ± 30 |  | IC50 ([1]; p97 ATPase assay): 25 ± 11 µM
33 | c1ccc(CNc2nc(Nc3ccccc3)nc3ccccc23)cc1 [II-1] |  | 3.1 ± 0.4 | 
34 | Clc1cccc(Nc2nc(NCc3ccccc3)c3ccccc3n2)c1 [II-13] |  | 7.8 ± 1.3 | 
35 | Fc1cccc(Nc2nc(NCc3ccccc3)c3ccccc3n2)c1 [II-14] |  | 2.7 ± 0.4 | 
36 | Cc1ccc(CNc2nc(NCc3ccccc3)c3ccccc3n2)cc1 [IV-1] |  | 1.5 ± 0.4 | 
37 | Fc1cccc(CNc2nc(NCc3ccccc3)c3ccccc3n2)c1 [IV-13] |  | 2.8 ± 0.4 | 
38 | Brc1cccc(CNc2nc(NCc3ccccc3)c3ccccc3n2)c1 [IV-14] |  | 2.8 ± 0.4 | 
39 | COc1cccc(CNc2nc(NCc3ccccc3)c3ccccc3n2)c1 [IV-15] |  | 2.5 ± 0.8 | 
40 | FC(F)(F)c1ccc(CNc2nc(NCc3ccccc3)c3ccccc3n2)cc1 [IV-16] |  | 2.3 ± 0.3 | 
41 | COc1cccc2c(NCc3ccccc3)nc(NCc3cccs3)nc12 [XI-14] |  | 1.8 ± 0.3 | 
42 | COc1cccc2c(NCc3ccccc3)nc(Nc3cccc(Cl)c3)nc12 [XI-16] |  | 5.4 ± 1 | 

Row | SMILES | IC50 [2, 3] [µM] | IC50 [2, 5] [µM] | also measured
43 | COc1cccc2c(NCc3ccccc3)nc(Nc3cccc(F)c3)nc12 [XI-17] |  | 4.8 ± 0.7 | 
44 | COc1cccc2c(NCc3ccccn3)nc(N3CCNc4ccccc43)nc12 [XLIII] | 16 ± 2 |  | 
45 | c1ccc(CNc2nc(N3CCOCC3)nc3ccccc23)cc1 [XLIV] | 36 ± 9 |  | 
46 | N#CC(C(=O)COC(=O)CNc1ccc(C(F)(F)F)cc1[N+](=O)[O-])=C1Nc2ccccc2N1 [XLI] | 6.5 ± 0.8 |  | 
47 | N#CC(C(=O)COC(=O)C1COc2ccccc2O1)=C1Nc2ccccc2N1 (centres unmarked) [XL] | 10 ± 1.4 |  | 
48 | c1ccc(CNc2nc(N3CCCCC3)nc3ccccc23)cc1 [XXII] | 7.3 ± 2 |  | 
49 | CCc1ccc(Nc2nc(N)nc(CCl)n2)cc1 [XXIX] | 18 ± 3 |  | 
50 | Nc1nc(CCl)nc(N2CCCc3ccccc32)n1 [XXVIII] | 17 ± 3 |  | 
51 | Nc1nc(Nc2cccc(Cl)c2)nc(C(Cl)Cl)n1 [XXVII] | 13 ± 3 |  | 
52 | Nc1nc(CCl)nc(N2CCc3ccccc32)n1 [XXVI] | 10.4 ± 1.5 |  | 
53 | N#CC(C(=O)COC(=O)c1ccccc1Cc1ccccc1)=C1Nc2ccccc2N1 [XXXIII] | 3.4 ± 0.6 |  | 
54 | N#CC(C(=O)COC(=O)COc1ccc(Cl)cc1)=C1Nc2ccccc2N1 [XXXII] | 2.6 ± 0.2 |  | 
55 | N#CC(C(=O)COC(=O)COc1cccc(Br)c1)=C1Nc2ccccc2N1 [XXXIV] | 5.9 ± 0.8 |  | 
56 | N#CC(C(=O)COC(=O)CCC(=O)c1ccc2c(c1)OCCO2)=C1Nc2ccccc2N1 [XXXIX] | 6.3 ± 0.6 |  | 
57 | Nc1nc(CCl)nc(Nc2ccc(Cl)cc2)n1 [XXXI] | 8 ± 2 |  | 
58 | Cc1cc(OCC(=O)OCC(=O)C(C#N)=C2Nc3ccccc3N2)ccc1Cl [XXXVIII] | 16 ± 1.4 |  | 
59 | Cc1cc(C)cc(OCC(=O)OCC(=O)C(C#N)=C2Nc3ccccc3N2)c1 [XXXVII] | 13 ± 1.4 |  | 
60 | Cc1cccc(C)c1OCC(=O)OCC(=O)C(C#N)=C1Nc2ccccc2N1 [XXXVI] | 15 ± 2 |  | 
61 | CCCOc1ccc(C(=O)CCC(=O)OCC(=O)C(C#N)=C2Nc3ccccc3N2)cc1 [XXXV] | 6.1 ± 0.6 |  | 
62 | Nc1nc(CCl)nc(Nc2cccc3ccccc23)n1 [XXX] | 14 ± 3 |  | 
